The source of these data is US20260275412A1, “A GENE SIGNATURE FOR DIAGNOSING STIMULATOR OF INTERFERON GENES (STING)-ASSOCIATED VASCULOPATHY WITH ONSET IN INFANCY (SAVI)” (INSTITUT NATIONAL DE LA SANTÉ ET DE LA RECHERCHE MÉDICALE, priority 2023, published 2026).

In one assay the test system is STING. Kind of assay: in vitro model of STING activation: PBMCs with ADUS100 with or without JAK-inhibitor, scRNA-seq. The assay is classed as cell-based, human. As to conditions: 4 hours. The text has this: Sequencing reads were demultiplexed and aligned to the human reference genome (hg38), and counted using the CellRanger Pipeline v6.0. Unfiltered RNA UMI counts were loaded into Seurat v4 for quality control, data integration and downstream analyses. Apoptotic cells and empty sequencing capsules were excluded by filtering out cells with low number of features (Filters were defined based on the batch: STING1: nFeature <300; STING2 and STING3<500; IFN-stim <750) or a mitochondrial content higher than 20%. Data from each sample were normalized using sctransform, before batch correction using Seurat's FindIntegratedAnchors, on the 3,000 most variable features. For the IFN-β dataset, for computational efficiency, integration anchors were determined with a canonical correlation analysis, using all unstimulated samples as reference. For the SAVI dataset, to avoid over-aligning samples, a reciprocal principal component analysis (PCA) was used to find integration anchors. On the resulting integrated datasets, we computed the PCA on the 3000 most variable genes, before computing a UMAP (on 20 PCs for SAVI and 30 PCs for IFN-stimulation). Community detection was performed using the graph-based modularity-optimization Louvain algorithm from Seurat's FindClusters function with a 1.2 resolution. Cell types labels were assigned to resulting clusters based on a manually curated list of marker genes as well as previously defined signatures of the PBMC subtypes.^58 Despite filtering for high quality cells, 11/34 clusters in the SAVI dataset and 7/36 in the IFN-β dataset stood out as poor quality clusters and were removed from further analysis. They represented low UMI cells, dying cells, cycling cells, doublets, or contaminants (progenitor cells, basophils, platelets or megakaryocytes). […] Transcriptomic signatures scores were calculated using Seurat's AddModuleScore function. […]
Human PBMC samples were obtained from Promocell (C-12907 promocell, lot 434Z036). […] Libraries were sequenced on a Novaseq (Illumina), with 26 cycles of read 1, 8 cycles of i7 index and 98 cycles of read 2. […]

The subject of another assay is T cell. As to conditions: cited from earlier work.
The next assay relates to SAVI patients. As to conditions: SAVI patients treated with JAK-inhibitors; cited from earlier work.
The mark [1] stands for this setting: PBMCs from a healthy donor, ADUS100 3 mM, vs unstimulated.

`Nc1ncnc2c1ncn2[C@@H]1O[C@@H]2COP(=O)([S-])O[C@@H]3[C@H](O)[C@@H](COP([O-])(=S)O[C@H]2[C@H]1O)O[C@H]3n1cnc2c(N)ncnc21.[Na+].[Na+]` (some centres unmarked) [ADUS100]: in the assay on STING (setting [1]), the “score of NF-κB activation” value is “increased” and the “score of type I IFN response” value is reported as “increased”. Further, the “STING-associated signature (21 genes)” value with STING (monocytes and DCs of stimulated PBMCs) is given as “strong increase”.
In the case of `C[C@@H]1CCN(C(=O)CC#N)C[C@@H]1N(C)c1ncnc2[nH]ccc12` [Tofacitinib, tofacitinib], the T cell proliferation entry in the assay on T cell is “inhibit T cell proliferation”. In addition, the “symptoms of SAVI patients” value in the assay on SAVI patients was “partial improvements of the symptoms”.
